Assay results as given in patent US11312804B2, “Polymerizable compound, polymerizable composition, polymer, and photoresist composition” (JNC CORPORATION, priority 2018, dated 2022).

Test: Water solubility test: extraction from water into ethyl acetate, weight of residue
Assay type: physicochemical
Details: for weight of the residue: 0.500 g dissolved in 10 mL water at room temperature, 10 mL ethyl acetate added, stirred 10 min, organic layer dried and concentrated
Description: In 10 mL of water, 0.500 g of the compound represented by formula (14a-x) was dissolved at room temperature, and 10 mL of ethyl acetate was added thereto, and the resulting mixture was stirred for 10 min, and then the organic layer was dried over anhydrous sodium sulfate. The desiccant was filtered off, and then the filtrate was concentrated under reduced pressure. The weight of the residue was 0.101 g.
In 10 mL of water, 0.500 g of a compound represented by formula (15), namely, mevalonolactone was dissolved at room temperature, and 10 mL of ethyl acetate was added thereto, and the resulting mixture was stirred for 10 min, and then the organic layer was dried over anhydrous sodium sulfate. The desiccant was filtered off, and then the filtrate was concentrated under reduced pressure. Then weight of the residue was 0.080 g.

weight of the residue | water solubility compared with the compound used in Comparative Example 1 (conclusion from ethyl acetate extraction test) | SMILES
0.101 g | lower water solubility | C[C@H]1C(=O)OCC[C@@]1(C)O [Compound 14a-x, α-methyl-mevalonolactone]
0.080 g | – | CC1(O)CCOC(=O)C1 (stereo not drawn) [Compound 15, mevalonolactone, reference compound]
